# Source: patent US20080255139A1, “Use Of 4- (4-Methylpiperazin-1-Ylmethyl)-N-[4-Methyl-3-(4-(Pyridin-3-Yl)Pyrimidin-2-Ylamino)Phenyl]-Benzamide to Inhibit the Tyrosine Kinase Receptor C-Fms” (priority 2004, published 2008)
# “Also recorded” adds a separate entry of the source. Like-named read-outs stand apart in the source and are kept apart here.
# Key:
# [1] = system: FDC-cfms cells (M-CSF dependent, c-fms); assay: cells; settings: 12 h, read-out: inhibition of cell growth, M-CSF sole stimulation
# [2] = system: M-CSF production by the cultured monocytes; assay: M-CSF ELISA on GM-CSF stimulated monocyte cultures; assay type: cell-based, human
# Experimental: M-CSF ELISA. Monocytes are isolated from buffy coats from normal donors, as previously described, e.g. in Dewar A et al., 2003, Leukemia 17:1713-21. Monocyte cultures (1×10^5/mL) are established in 24 well plates in serum deprived medium (SDM; IMDM/1% BSA supplemented with 2 mM L-glutamine, 200 μg/mL transferrin, 10 μg/mL insulin (Actrapid®, Novo Nordisk), 10^−4 M β-mercaptoethanol, 50 μg/mL low density lipoproteins (Sigma)) and stimulated with 20 ng/mL GM-CSF. Supernatants are harvested at 24 h intervals for 5 days, and analysed for M-CSF using an R&D Systems DuoSete ELISA development system according to the manufacturers instructions.
# FDC-cfms cells = settings: for Cell count, IL-3, 12 H: 0 μM control 125433; for Cell count, IL-3, 24 H: 0 μM control 257726; for Cell count, IL-3, 48 H: 0 μM control 1123171
# [3] = system: FDC-cfms cells (M-CSF dependent, c-fms); settings: for Cell count, M-CSF, 12 H: 0 μM control 132174; for Cell count, M-CSF, 24 H: 0 μM control 310859; for Cell count, M-CSF, 48 H: 0 μM control 1453642
structure (smiles),measurement,setting,value
"Cc1ccc(NC(=O)c2ccc(CN3CCN(C)CC3)cc2)cc1Nc1nccc(-c2cccnc2)n1 [Compound I, 4-(4-methylpiperazin-1-ylmethyl)-N-[4-methyl-3-(4-(pyridin-3-yl)pyrimidin-2-ylamino)phenyl]-benzamide]",inhibition at 5 µM,[1],50%
same,effect on M-CSF production by the cultured monocytes,"[2]; 1.0 μM Compound I, GM-CSF 20 ng/mL",no effect
same,decrease in M-CSF production,"[2]; 5.0 μM, GM-CSF stimulated monocytes",30%
same,"effect on cell growth, IL-3 stimulated control cultures","FDC-cfms cells; 12 or 24 h, 0.5-5.0 μM Compound I",no Compound I-specific effects on cell growth; also recorded: No effect
same,"Cell count, IL-3, 12 H",FDC-cfms cells; Compound I 0.5 μM,131724 cells/mL
same,"Cell count, IL-3, 24 H",FDC-cfms cells; Compound I 0.5 μM,281975 cells/mL
same,"Cell count, IL-3, 48 H",FDC-cfms cells; Compound I 0.5 μM,1107666 cells/mL
same,"Cell count, IL-3, 12 H",FDC-cfms cells; Compound I 1 μM,126472 cells/mL
same,"Cell count, IL-3, 24 H",FDC-cfms cells; Compound I 1 μM,264007 cells/mL
same,"Cell count, IL-3, 48 H",FDC-cfms cells; Compound I 1 μM,1068150 cells/mL
same,"Cell count, IL-3, 12 H",FDC-cfms cells; Compound I 5 μM,106917 cells/mL
same,"Cell count, IL-3, 24 H",FDC-cfms cells; Compound I 5 μM,197435 cells/mL
same,"Cell count, IL-3, 48 H",FDC-cfms cells; Compound I 5 μM,682771 cells/mL
same,"Cell count, IL-3, 12 H",FDC-cfms cells; Compound I […],131857 cells/mL
same,"Cell count, IL-3, 24 H",FDC-cfms cells; Compound I […],247613 cells/mL
same,"Cell count, IL-3, 48 H",FDC-cfms cells; Compound I […],940233 cells/mL
same,"cell counts, M-CSF","[3]; 24 h, 5.0 μM Compound I",lower than seeded values
same,"Cell count, M-CSF, 12 H",[3]; Compound I 0.5 μM,133296 cells/mL
same,"Cell count, M-CSF, 24 H",[3]; Compound I 0.5 μM,339185 cells/mL
same,"Cell count, M-CSF, 48 H",[3]; Compound I 0.5 μM,1577777 cells/mL
same,"Cell count, M-CSF, 12 H",[3]; Compound I 1 μM,130010 cells/mL
same,"Cell count, M-CSF, 24 H",[3]; Compound I 1 μM,311035 cells/mL
same,"Cell count, M-CSF, 48 H",[3]; Compound I 1 μM,1362802 cells/mL
same,"Cell count, M-CSF, 12 H",[3]; Compound I 5 μM,68324 cells/mL
same,"Cell count, M-CSF, 24 H",[3]; Compound I 5 μM,20830 cells/mL
same,"Cell count, M-CSF, 48 H",[3]; Compound I 5 μM,20149 cells/mL
same,"Cell count, M-CSF, 12 H",[3]; Compound I […],117025 cells/mL
same,"Cell count, M-CSF, 24 H",[3]; Compound I […],174818 cells/mL
same,"Cell count, M-CSF, 48 H",[3]; Compound I […],295134 cells/mL
